Measured values from patent US9226503B2, “Composition and method for attraction of emerald ash borer Agrilus planipennis fairmaire (coleoptera: buprestidae)” (Her Majesty the Queen in Right of Canada, as represented by …, priority 2011, dated 2016).

Assays:
A. planipennis [1] = details: Silk et al. 2009; cited from earlier work
A. planipennis [2] = test: Field trapping 2011 experiment 2: (3Z)-lactone, (3Z)-hexenol and trap height factorial, dark green traps; format: in vivo, Agrilus planipennis; details: 2×2×2 factorial, lactone 3 mg/lure
Description: Two trapping experiments were conducted in green and white ash plantations (F. pennsylvanica Marsch and F. americana L.) located 40-60 km southeast of Sarnia, Ontario in 2011. Trees were 20-30 yr old, 5-8 m tall, 12-18 cm in diameter, and spaced 2-3 m apart within and between rows. Five sites were used in total: four were green ash and the fifth was a white ash plantation. Trees at four of the sites generally appeared healthy with few or no signs of decline and only a few with obvious signs and symptoms of infestation by A. planipennis. At the fifth site, obvious crown decline and signs of infestation were apparent on about one-quarter of trees.
Green prism sticky traps (0.30 cm×35.00 cm×58.75 cm) (Synergy Semiochemicals Corp., Burnaby, BC) were used in all field trials, deployed using modified umbrella rig spreaders (Zing Products, Westport, Mass.). Traps were spaced 20-25 m apart and lure treatments replicated in randomized complete block designs. Traps were deployed either using ropes tied between two trees or using a single line over a canopy branch, as described further below for each specific experimental objective. Traps were typically checked every 2 wk and A. planipennis were collected, counted, and sexed.
Experiment 2 was a 2×2×2 factorial experiment designed to test the effects of (3Z)-lactone, (3Z)-hexenol, trap height, and their interactions on numbers of A. planipennis captured on sticky, dark green (540-nm wavelength) (Francese et al 2010a) prism traps. Traps were baited with either (3Z)-lactone, (3Z)-hexenol, (3Z)-lactone+(3Z)-hexenol, or neither compound (unbaited control) and all treatments were deployed both below the canopy or in the mid-canopy. Traps placed below the canopy were suspended from ropes tied between two trees so the trap was 1-1.5 m from either tree and the top of the trap was 1.5-2 m above the ground. Traps in the canopy were deployed from a single line looped over a mid-canopy branch such that traps were 1-1.5 m from the main stem and their tops were 6 m above ground. (3Z)-Lactone was loaded onto rubber septa lures at a dosage of 3 mg/lure. Release rates of the (3Z)-lactone and (3Z)-hexenol were 60-70 μg/day and 50-100 mg/day, respectively at 25° C. Traps were in the field from 8 June-5 August, with one block at one site (Nauvoo Ranch), 5 blocks at a second site (LaSalle, the one white ash plantation), and 4 blocks at a third site (Brook Line). The 3 mg (3Z)-lactone lures were estimated to maintain adequate release rates for a minimum of three weeks and thus were replaced after three weeks; (3Z)-hexenol lures were not replaced during the experiment.
Numbers of A. planipennis captured in the trapping experiments were subjected to ANOVA separately for males and females. […]

A. planipennis [3] = details: background, cited studies; cited from earlier work
A. planipennis [4] = test: Two-choice Y-tube olfactometer assay; format: in vivo, Agrilus planipennis; details: (3Z)-hexenol 5 μg
Description: A Y-tube olfactometer (Analytical Research Systems Inc, Gainsville, Fla.) was used to test for attraction of A. planipennis to lactone isomers and host volatiles. […] Each arm was connected to a cylinder that contained the stimulus. Charcoal filtered air was passed into each arm at a flow rate of 1.2 L/min. Treatments included the pheromone alone: (3Z)-lactone (10 μg); (3E)-lactone (10 μg); and 60:40 (3E):(3Z)-lactone (10 μg). Next, we tested bark sesquiterpenes and a green leaf volatile alone: Phoebe oil (25 μg and 2.5 μg) and (3Z)-hexenol (5 μg). We then tested the pheromone combined with bark sesquiterpenes: (3Z)-lactone (10 μg)+Phoebe oil (at both 25 μg and 2.5 μg); (3E)-lactone (10 μg)+Phoebe oil (at both 25 μg and 2.5 μg). Finally, we tested the pheromone combined with the green leaf volatile: (3Z)-lactone (10 μg)+(3Z)-hexenol (5 μg); and (3E)-lactone (10 μg)+(3Z)-hexenol (5 μg). Each stimulus (l μl for single compound treatments and a total of 2 μl for two-compound treatments) was diluted in hexane, placed on a strip of filter paper and given one minute for the solvent to evaporate before being placed in the olfactometer. A second filter paper, treated with the equivalent volume of solvent was placed in the other arm of the olfactometer to serve as the control. The apparatus was rinsed with acetone after each treatment, and the arm attached to the test stimulus was randomized between replicates.
For each treatment, we tested increasing numbers of adults until we obtained a minimum of 12 beetles responding to the stimuli (either positively or negatively). To obtain this minimum, we tested 15-54 beetles per treatment. For each trial, a single A. planipennis (mature virgin male or female, >10 days old) was given ten minutes to choose between the two stimuli; adults were used only once in the bioassay. […] A chi-square test was conducted for each independent trial.

A. planipennis antennae = test: EAG dose-response study; set-up: species or system Agrilus planipennis; details: 1 μg applied dose; n=80, 15 antennal preparations
From the text: EAG analyses were made by methods and equipment generally described by Cossé & and Bartelt (2000). EAG connections were made by inserting a glass-pipette silver-grounding electrode into the back of an excised beetle head. A second glass-pipette silver-recording probe was placed in contact with the distal end of one antenna. Both pipettes were filled with Beadle-Ephrussi (Ephrussi and Beadle 1936) saline.
For the EAG-dose-response study, (3Z)- and (3E)-lactones were purified (99.9% purity by GC/MS) by high performance liquid chromatography (HPLC) using a Waters 515 pump, a Waters R401 refractive index detector, and a 25 cm by 0.46 cm i.d. silica column (Adsorbosphere Silica 5 μm, Alltech, Deerfield, Ill.), treated with silver nitrate as described by Heath and Sonnett (1980). Solvent was 8% ether in hexane. Ten micro liters of serially diluted solutions (methylene chloride) of synthetic (3Z)-lactone and (3E)-lactone were applied to filter paper strips (0.5 cm×5 cm, Whatman no. 1). The filter paper strips were placed in 14-cm-long Pasteur pipettes, hereafter referred to as stimulus cartridges, after 5 min at room temperature. Stimulus doses tested were 0.01, 0.1, 1, 10, and 100 μg. Male and female antennae were exposed to single 0.2s puffs of odor-bearing air at 5 ml/s by placing the tip of an stimulus cartridge into a hole of a glass tube (0.7 cm ID×20 cm), 10 cm from the outlet and 11 cm away from the antennal preparation. Airflow through the glass tube was humidified and set at 10 ml/s. Puff duration and airflow speeds were maintained by a stimulus flow controller (SFC-2, Syntech, Hilversum, The Netherlands). Stimuli cartridges were selected in random order, beginning with the lowest dosages and working upward to the highest dosages. Each puffed dosage was preceded and followed by a puff from a solvent blank cartridge (filter paper plus solvent). To compensate for possible deterioration of the antennal preparation, a standard control compound, geranyl acetone (1 μg dose) preceded dosages of stimuli compound. EAG amplitudes were normalized according to the responses to geranyl acetone by dividing the amplitude of the EAG generated by the test compounds by that of geranyl acetone. Dose-response series were replicated, using different antennal preparation for each replication, and the EAG responses were expressed as a percentage of the EAG responses to geranyl acetone. Each antennal preparation was tested with freshly prepared sets of stimuli cartridges. Male and female EAG responses were submitted to analysis of variance (ANOVA) using Statistica for Windows software (StatSoft Inc. Tulsa, Okla.)).

[5] = females, low dose of Phoebe oil

For CCCCCCCCCCCCCCCCC(C)CCCCCCCC (centres unmarked) [9-methylpentacosane], which “copulatory activity in males upon antennal contact (literature)” value (A. planipennis [1]) is on record?
The value was “stimulates full copulatory activity in males”.

For CC/C=C\CCO [(3Z)-hexenol], which “mean capture of males per trap, effect of presence of the lure component” value (A. planipennis [2]) is on record?
Its value is “significantly and positively affected”.

What about the “mean catch of females, effect of the lure component” value (A. planipennis [2]) of the same compound?
The value was “not”.

And the “attractiveness to A. planipennis (literature)” value (A. planipennis [3])?
Its value is “highly antennally active and attractive to males”.

What about the “attraction of females in Y-tube olfactometer vs hexane control” value (A. planipennis [4]; [5]) of the same compound?
Its value is “slightly attracted”.

And the “females responded in Y-tube olfactometer” value (A. planipennis [4]; [5])?
The value was 75%.

And the “attraction of males in Y-tube olfactometer vs hexane control” value (A. planipennis [4]; males, lactone 10 μg, chi-square test)?
Its value is “highly attracted”.

Which “mean EAG response of antennae to standard (±SD)” value (A. planipennis antennae) does the source give for CC(=O)CC/C=C(\C)CCC=C(C)C [geranyl acetone, reference compound] here?
Its value is −0.06±0.03 mV.
